Source: ChEMBL document CHEMBL3991601, “The target landscape of clinical kinase drugs” (Science, 2017)
Activity calls are given as the source filed them.

Experiments:
[1] = biological target: Cyclin-dependent kinase 7 (Homo sapiens, UniProt P50613)
[2] = biological target: Mitogen-activated protein kinase 10 (Homo sapiens, UniProt P53779)
[3] = biological target: T1, Mitogen-activated protein kinase 15 (Homo sapiens, UniProt Q8TD08)
T1 sequence (Q8TD08 whole entry): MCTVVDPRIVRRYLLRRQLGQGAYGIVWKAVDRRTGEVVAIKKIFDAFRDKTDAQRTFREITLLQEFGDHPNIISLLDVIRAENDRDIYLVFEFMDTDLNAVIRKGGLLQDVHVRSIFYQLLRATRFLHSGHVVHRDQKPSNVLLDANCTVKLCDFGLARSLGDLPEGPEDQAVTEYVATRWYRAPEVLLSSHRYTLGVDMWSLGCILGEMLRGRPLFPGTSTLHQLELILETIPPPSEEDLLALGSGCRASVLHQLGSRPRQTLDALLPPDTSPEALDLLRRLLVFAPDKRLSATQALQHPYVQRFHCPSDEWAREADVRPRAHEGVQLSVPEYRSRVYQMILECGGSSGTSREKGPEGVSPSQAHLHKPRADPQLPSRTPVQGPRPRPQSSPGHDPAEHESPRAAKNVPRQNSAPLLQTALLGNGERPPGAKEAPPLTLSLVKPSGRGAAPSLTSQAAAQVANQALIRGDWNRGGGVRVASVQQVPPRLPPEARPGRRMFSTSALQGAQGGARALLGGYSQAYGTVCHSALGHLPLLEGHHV

[4] = biological target: T2, RNA cytidine acetyltransferase (Homo sapiens, UniProt Q9H0A0)
T2 sequence (Q9H0A0 whole entry): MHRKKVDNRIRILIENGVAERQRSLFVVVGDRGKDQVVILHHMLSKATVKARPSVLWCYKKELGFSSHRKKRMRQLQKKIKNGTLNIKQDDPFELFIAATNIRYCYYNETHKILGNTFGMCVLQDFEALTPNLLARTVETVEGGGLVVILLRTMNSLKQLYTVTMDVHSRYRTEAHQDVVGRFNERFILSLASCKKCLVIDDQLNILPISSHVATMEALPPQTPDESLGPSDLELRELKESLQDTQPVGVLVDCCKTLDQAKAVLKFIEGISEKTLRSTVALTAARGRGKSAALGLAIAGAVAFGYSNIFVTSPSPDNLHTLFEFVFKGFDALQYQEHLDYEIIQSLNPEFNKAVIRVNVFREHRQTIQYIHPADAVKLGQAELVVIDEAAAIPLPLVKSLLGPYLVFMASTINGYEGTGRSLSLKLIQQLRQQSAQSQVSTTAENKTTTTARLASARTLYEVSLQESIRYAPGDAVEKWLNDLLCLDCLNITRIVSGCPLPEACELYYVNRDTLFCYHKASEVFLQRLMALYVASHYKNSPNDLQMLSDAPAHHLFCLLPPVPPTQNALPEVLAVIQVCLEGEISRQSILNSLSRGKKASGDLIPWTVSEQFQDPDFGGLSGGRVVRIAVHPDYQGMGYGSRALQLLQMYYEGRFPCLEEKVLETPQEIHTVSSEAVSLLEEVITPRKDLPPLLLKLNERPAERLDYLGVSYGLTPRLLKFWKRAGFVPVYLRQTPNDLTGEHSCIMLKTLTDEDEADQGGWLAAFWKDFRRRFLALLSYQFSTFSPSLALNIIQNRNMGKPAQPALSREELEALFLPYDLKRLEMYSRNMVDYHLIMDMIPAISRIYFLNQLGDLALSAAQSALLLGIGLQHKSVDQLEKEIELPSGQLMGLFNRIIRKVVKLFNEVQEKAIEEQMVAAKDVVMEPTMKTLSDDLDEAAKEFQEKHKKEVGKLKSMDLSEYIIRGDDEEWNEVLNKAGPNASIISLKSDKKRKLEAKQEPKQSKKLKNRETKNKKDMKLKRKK

[5] = biological target: T3, Phosphatidylinositol 5-phosphate 4-kinase type-2 alpha (Homo sapiens, UniProt P48426)
T3 sequence (P48426 whole entry): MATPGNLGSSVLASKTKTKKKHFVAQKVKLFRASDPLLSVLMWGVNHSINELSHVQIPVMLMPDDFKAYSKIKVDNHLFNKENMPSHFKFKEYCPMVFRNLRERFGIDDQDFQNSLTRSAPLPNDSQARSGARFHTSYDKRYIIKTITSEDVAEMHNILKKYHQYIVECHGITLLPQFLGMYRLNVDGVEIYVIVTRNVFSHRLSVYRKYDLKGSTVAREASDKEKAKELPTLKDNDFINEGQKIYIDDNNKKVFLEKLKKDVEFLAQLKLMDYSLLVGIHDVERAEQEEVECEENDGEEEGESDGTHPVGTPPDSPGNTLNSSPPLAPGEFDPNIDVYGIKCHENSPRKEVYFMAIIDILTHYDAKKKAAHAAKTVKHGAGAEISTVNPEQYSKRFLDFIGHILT

[6] = biological target: Ribosomal protein S6 kinase beta-1 (Homo sapiens, UniProt P23443)
Chain of Ribosomal protein S6 kinase beta-1 (P23443 whole entry): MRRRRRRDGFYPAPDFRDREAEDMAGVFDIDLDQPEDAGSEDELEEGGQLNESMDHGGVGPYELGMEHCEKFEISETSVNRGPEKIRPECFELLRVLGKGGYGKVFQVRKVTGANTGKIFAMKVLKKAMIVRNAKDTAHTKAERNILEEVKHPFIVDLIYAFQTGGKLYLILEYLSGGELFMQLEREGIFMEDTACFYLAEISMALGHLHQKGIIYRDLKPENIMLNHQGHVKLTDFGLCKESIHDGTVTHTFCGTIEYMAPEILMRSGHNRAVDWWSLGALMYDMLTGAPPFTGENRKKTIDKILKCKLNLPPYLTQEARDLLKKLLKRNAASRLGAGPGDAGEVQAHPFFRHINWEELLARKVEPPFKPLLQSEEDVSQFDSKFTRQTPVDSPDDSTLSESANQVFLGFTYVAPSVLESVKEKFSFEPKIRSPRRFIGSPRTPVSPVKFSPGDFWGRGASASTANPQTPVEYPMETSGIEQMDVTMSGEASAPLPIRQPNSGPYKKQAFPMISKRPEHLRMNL

[7] = biological target: Non-receptor tyrosine-protein kinase TYK2 (Homo sapiens, UniProt P29597)
Chain of Non-receptor tyrosine-protein kinase TYK2 (P29597 whole entry): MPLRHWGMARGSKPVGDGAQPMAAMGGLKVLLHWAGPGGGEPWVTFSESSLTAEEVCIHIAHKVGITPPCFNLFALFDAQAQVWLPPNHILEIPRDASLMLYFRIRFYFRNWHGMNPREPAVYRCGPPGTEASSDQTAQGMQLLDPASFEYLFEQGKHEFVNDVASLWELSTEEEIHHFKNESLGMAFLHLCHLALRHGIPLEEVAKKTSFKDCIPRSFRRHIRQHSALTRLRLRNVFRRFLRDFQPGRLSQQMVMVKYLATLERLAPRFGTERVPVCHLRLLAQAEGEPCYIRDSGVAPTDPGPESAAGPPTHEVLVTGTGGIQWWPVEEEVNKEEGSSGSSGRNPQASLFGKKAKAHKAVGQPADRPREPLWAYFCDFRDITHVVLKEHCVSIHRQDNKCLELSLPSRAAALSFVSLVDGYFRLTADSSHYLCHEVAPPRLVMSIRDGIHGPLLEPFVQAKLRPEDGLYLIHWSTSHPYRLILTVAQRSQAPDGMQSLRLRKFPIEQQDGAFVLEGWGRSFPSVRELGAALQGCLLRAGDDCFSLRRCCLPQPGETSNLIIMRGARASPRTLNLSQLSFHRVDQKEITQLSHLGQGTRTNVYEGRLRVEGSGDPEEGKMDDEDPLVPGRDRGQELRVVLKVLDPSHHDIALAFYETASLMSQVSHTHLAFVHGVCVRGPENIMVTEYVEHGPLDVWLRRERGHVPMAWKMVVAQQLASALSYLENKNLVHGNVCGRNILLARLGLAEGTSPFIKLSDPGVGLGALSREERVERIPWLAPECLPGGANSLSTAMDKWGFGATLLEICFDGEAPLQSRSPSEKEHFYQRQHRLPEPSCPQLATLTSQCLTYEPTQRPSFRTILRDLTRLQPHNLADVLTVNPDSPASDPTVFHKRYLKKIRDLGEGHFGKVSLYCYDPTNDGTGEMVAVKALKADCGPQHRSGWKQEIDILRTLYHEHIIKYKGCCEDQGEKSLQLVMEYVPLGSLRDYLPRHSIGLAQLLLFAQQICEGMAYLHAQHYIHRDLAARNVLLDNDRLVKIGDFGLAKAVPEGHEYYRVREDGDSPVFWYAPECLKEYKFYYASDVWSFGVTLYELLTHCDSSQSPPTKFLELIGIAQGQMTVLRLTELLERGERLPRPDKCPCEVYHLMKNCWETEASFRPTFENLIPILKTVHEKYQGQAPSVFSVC

[8] = biological target: T4, Uncharacterized protein FLJ45252 (Homo sapiens, UniProt Q6ZSR9); details: read-out: Kd apparent; k-562, colo 205, sk-n-be(2) and mv-4-11
T4 sequence (Q6ZSR9 whole entry): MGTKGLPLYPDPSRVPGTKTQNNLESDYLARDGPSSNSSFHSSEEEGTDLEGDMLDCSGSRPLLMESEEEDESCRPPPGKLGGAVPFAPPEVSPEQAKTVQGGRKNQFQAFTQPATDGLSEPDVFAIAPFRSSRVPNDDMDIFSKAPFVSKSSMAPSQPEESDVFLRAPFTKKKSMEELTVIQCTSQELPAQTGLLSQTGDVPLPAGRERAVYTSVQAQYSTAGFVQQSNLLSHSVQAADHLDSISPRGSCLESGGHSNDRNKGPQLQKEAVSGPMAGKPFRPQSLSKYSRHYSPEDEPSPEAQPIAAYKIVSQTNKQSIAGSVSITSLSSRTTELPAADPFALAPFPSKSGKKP

Measured: Kd
Further: in the data inactive means no Kd found up to 30 µM.

Chain of Mitogen-activated protein kinase 10 (P53779 whole entry): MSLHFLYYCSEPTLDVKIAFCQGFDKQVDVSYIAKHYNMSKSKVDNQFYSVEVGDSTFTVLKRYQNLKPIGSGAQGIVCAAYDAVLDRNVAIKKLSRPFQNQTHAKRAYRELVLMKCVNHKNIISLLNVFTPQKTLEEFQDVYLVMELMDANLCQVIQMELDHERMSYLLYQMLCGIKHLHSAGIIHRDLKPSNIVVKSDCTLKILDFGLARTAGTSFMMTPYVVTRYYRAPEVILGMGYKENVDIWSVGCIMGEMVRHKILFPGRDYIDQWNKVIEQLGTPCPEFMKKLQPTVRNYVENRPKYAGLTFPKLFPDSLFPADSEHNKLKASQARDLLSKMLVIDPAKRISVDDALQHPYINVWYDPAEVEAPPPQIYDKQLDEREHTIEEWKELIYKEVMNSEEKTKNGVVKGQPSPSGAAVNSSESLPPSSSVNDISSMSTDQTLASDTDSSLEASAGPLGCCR
Chain of Cyclin-dependent kinase 7 (P50613 whole entry): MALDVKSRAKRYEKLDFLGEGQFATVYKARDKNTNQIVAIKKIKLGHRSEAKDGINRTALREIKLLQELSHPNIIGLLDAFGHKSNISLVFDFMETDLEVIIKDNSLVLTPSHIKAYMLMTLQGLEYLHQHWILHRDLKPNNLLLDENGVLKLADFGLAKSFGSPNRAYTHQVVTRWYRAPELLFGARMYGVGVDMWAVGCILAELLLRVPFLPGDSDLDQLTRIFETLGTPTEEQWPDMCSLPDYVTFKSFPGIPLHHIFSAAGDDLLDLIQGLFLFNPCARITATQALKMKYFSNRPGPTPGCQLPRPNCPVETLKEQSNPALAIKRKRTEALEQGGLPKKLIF

CNC(=O)c1cccc(-c2ccc3c(N4CCOC[C@@H]4C)nc(N4CCOC[C@@H]4C)nc3n2)c1 [VISTUSERTIB]
inactive: [1] > 30 µM | [2] > 30 µM | [3] > 30 µM | [4] > 30 µM | [5] > 30 µM | [6] > 30 µM | [7] > 30 µM | [8] > 30 µM

COc1cc2ncnc(Nc3ccc(O)cc3)c2cc1OC [WHI-P131]
active: [8] 1.54 µM
inactive: [1] > 30 µM | [2] > 30 µM | [3] > 30 µM | [4] > 30 µM | [5] > 30 µM | [6] > 30 µM | [7] > 30 µM
